From US7396837B2, “Antitumoral analogs of lamellarins” (Pharma Mar, S.A.U., priority 2002, dated 2008)
Like-named read-outs stand apart in the source and are kept apart here.

Columns and labels:
Format in all cases: cell-based
K-562 = experiment: SRB colorimetric cell growth inhibition assay, K-562; conditions: for GI50: GI=growth inhibition, read-out: GI50 K-562
Outline: (§1)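 Quantitation uses the sulforhodamine B reaction on cells exposed to sample for the whole assay period; results (mean ± SD, n = 3 wells) yield GI, TGI and LC.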

DU-145 = experiment: SRB colorimetric cell growth inhibition assay, DU-145; conditions: for GI50: GI=growth inhibition, read-out: GI50 DU-145
Outline: as §1

HT-29 = experiment: SRB colorimetric cell growth inhibition assay, HT-29; conditions: for GI50: GI=growth inhibition, read-out: GI50 HT-29
Outline: as §1

SK-BR-3 = experiment: SRB colorimetric cell growth inhibition assay, SK-BR-3; conditions: for GI50: GI=growth inhibition, read-out: GI50 SK-BR-3
Outline: as §1

LoVo = experiment: SRB colorimetric cell growth inhibition assay, LoVo; conditions: for GI50: GI=growth inhibition, read-out: GI50 LOVO
Outline: as §1

A-549 = experiment: SRB colorimetric cell growth inhibition assay, A-549; conditions: for GI50: GI=growth inhibition, read-out: GI50 A-549
Outline: as §1

IGROV-ET = experiment: SRB colorimetric cell growth inhibition assay, IGROV-ET (ET-743 resistant); conditions: for GI50: GI=growth inhibition, read-out: GI50 IGROV-ET
Outline: as §1

IGROV = experiment: SRB colorimetric cell growth inhibition assay, IGROV; conditions: IGROV; for GI50: GI=growth inhibition, read-out: GI50 IGROV
Outline: as §1

LoVo-Dox = experiment: SRB colorimetric cell growth inhibition assay, LoVo-Dox (MDR); conditions: for GI50: GI=growth inhibition, read-out: GI50 LOVO-DOX
Outline: as §1

SKOV-3 = experiment: SRB colorimetric cell growth inhibition assay, SKOV-3; conditions: Homo sapiens
Text: Inhibition of Cell Growth by Colorimetric Assay.
A colorimetric type of assay, using sulforhodamine B (SRB) reaction has been adapted for a quantitative measurement of cell growth and viability (following the technique described by P. A. Skehan, et al., J. Natl. Cancer Inst. 1990, 82, 1107-1112).
This form of assay employs 96 well cell culture microplates of 9 mm diameter (T. Mosmann et al., J. of Immunological Methods 1983, 65, 55-63; G. T. Faircloth et al., J. of Tissue and Culture Methods 1988, 11, 201-205).
Most of the cell lines are obtained from American Type Culture Collection (ATCC) derived from different human cancer types.
The values for mean +/− SD of data from triplicate wells are calculated. Some parameters for cellular responses can be calculated: GI=growth inhibition, TGI=total growth inhibition (cytostatic effect) and LC=cell killing (cytotoxic effect).

SK-MEL-28 = experiment: SRB colorimetric cell growth inhibition assay, SK-MEL-28; conditions: for GI50: GI=growth inhibition, read-out: GI50 MEL-28
Outline: as §1

PANC-1 = experiment: SRB colorimetric cell growth inhibition assay, PANC-1; conditions: for GI50: GI=growth inhibition, read-out: GI50 PANC-1
Outline: as §1

LNCaP = experiment: SRB colorimetric cell growth inhibition assay, LNCaP; conditions: LN-caP
Outline: as §1

HeLa-APL = experiment: SRB colorimetric cell growth inhibition assay, HeLa-APL (aplidine resistant); conditions: HELA-APL
Outline: as §1

HeLa = experiment: SRB colorimetric cell growth inhibition assay, HeLa; conditions: HELA
Outline: as §1

[1] = total growth inhibition (cytostatic effect)

COc1cc(-c2c3c4cc(OC)c(OC(=O)[C@H](N)C(C)C)cc4oc(=O)c3n3ccc4c(OC(=O)[C@H](N)C(C)C)c(OC)c(OC)cc4c23)ccc1OC(=O)[C@H](N)C(C)C [Compound 43]
GI50 (K-562; Homo sapiens, K562, K-562): 0.118 µM | IC (TGI) (K-562; Homo sapiens, K562, K-562, TGI=total growth inhibition (cytostatic effect), read-out: TGI K-562): 0.565 µM | CC50 (K-562; Homo sapiens, K562, read-out: LC50 K-562, K-562, LC=cell killing (cytotoxic effect)): 12.1 µM | GI50 (DU-145; Homo sapiens, DU-145, DU-145): 0.0574 µM | IC (TGI) (DU-145; Homo sapiens, DU-145, DU-145, TGI=total growth inhibition (cytostatic effect), read-out: TGI DU-145): 0.301 µM | CC50 (DU-145; Homo sapiens, DU-145, read-out: LC50 DU-145, DU-145, LC=cell killing (cytotoxic effect)): 12.1 µM | CC50 (HT-29; Homo sapiens, HT-29, read-out: LC50 HT-29, HT-29, LC=cell killing (cytotoxic effect)): 12.1 µM | GI50 (HT-29; Homo sapiens, HT-29): 12.1 µM | IC (TGI) (HT-29; Homo sapiens, HT-29, TGI=total growth inhibition (cytostatic effect), read-out: TGI HT-29): 12.1 µM | GI50 (SK-BR-3; Homo sapiens, SK-BR-3, SK-BR-3): 0.212 µM | IC (TGI) (SK-BR-3; Homo sapiens, SK-BR-3, SK-BR-3, TGI=total growth inhibition (cytostatic effect), read-out: TGI SK-BR-3): 1.1 µM | CC50 (SK-BR-3; Homo sapiens, SK-BR-3, read-out: LC50 SK-BR-3, SK-BR-3, LC=cell killing (cytotoxic effect)): 7.9 µM | CC50 (LoVo; Homo sapiens, LoVo, read-out: LC50 LOVO, LOVO, LC=cell killing (cytotoxic effect)): 12.1 µM | GI50 (LoVo; Homo sapiens, LoVo): 0.635 µM | IC (TGI) (LoVo; Homo sapiens, LoVo, TGI=total growth inhibition (cytostatic effect), read-out: TGI LOVO): 3.72 µM | GI50 (A-549; Homo sapiens, A549, A-549): 1.9 µM | IC (TGI) (A-549; Homo sapiens, A549, A-549, TGI=total growth inhibition (cytostatic effect), read-out: TGI A-549): 12.1 µM | CC50 (A-549; Homo sapiens, A549, read-out: LC50 A-549, A-549, LC=cell killing (cytotoxic effect)): 12.1 µM | GI50 (IGROV-ET; Homo sapiens, IGROV-ET): 0.098 µM | IC (TGI) (IGROV-ET; Homo sapiens, IGROV-ET, TGI=total growth inhibition (cytostatic effect), read-out: TGI IGROV-ET): 3.24 µM | CC50 (IGROV-ET; Homo sapiens, read-out: LC50 IGROV-ET, IGROV-ET, LC=cell killing (cytotoxic effect)): 12.1 µM | CC50 (IGROV; Homo sapiens, read-out: LC50 IGROV, IGROV, LC=cell killing (cytotoxic effect)): 8.94 µM | GI50 (IGROV; Homo sapiens): 0.418 µM | IC (TGI) (IGROV; Homo sapiens, TGI=total growth inhibition (cytostatic effect), read-out: TGI IGROV): 2.14 µM | GI50 (LoVo-Dox; Homo sapiens, LOVO-DOX): 0.937 µM | IC (TGI) (LoVo-Dox; Homo sapiens, LOVO-DOX, TGI=total growth inhibition (cytostatic effect), read-out: TGI LOVO-DOX): 3.14 µM | CC50 (LoVo-Dox; Homo sapiens, read-out: LC50 LOVO-DOX, LOVO-DOX, LC=cell killing (cytotoxic effect)): 9.84 µM | GI50 (SKOV-3; SK-OV-3, SKOV-3, GI=growth inhibition, read-out: GI50 SKOV-3): 0.146 µM | CC50 (SKOV-3; SK-OV-3, read-out: LC50 SKOV-3): 12.1 µM | IC (TGI) (SKOV-3; SK-OV-3, SKOV-3, TGI=total growth inhibition (cytostatic effect), read-out: TGI SKOV-3): 1.14 µM | GI50 (SK-MEL-28; Homo sapiens, SK-MEL-28, MEL-28): 0.498 µM | CC50 (SK-MEL-28; Homo sapiens, SK-MEL-28, read-out: LC50 MEL-28, MEL-28, LC=cell killing (cytotoxic effect)): 12.1 µM | IC (TGI) (SK-MEL-28; Homo sapiens, SK-MEL-28, MEL-28, TGI=total growth inhibition (cytostatic effect), read-out: TGI MEL-28): 12.1 µM | GI50 (PANC-1; Homo sapiens, PANC-1, PANC-1): 1.49 µM | IC (TGI) (PANC-1; Homo sapiens, PANC-1, PANC-1, TGI=total growth inhibition (cytostatic effect), read-out: TGI PANC-1): 6.57 µM | CC50 (PANC-1; Homo sapiens, PANC-1, read-out: LC50 PANC-1, PANC-1, LC=cell killing (cytotoxic effect)): 12.1 µM

COc1cc(-c2c3c4cc(OC)c(OC(=O)[C@H](C)N)cc4oc(=O)c3n3ccc4cc(O)c(OC)cc4c23)ccc1O.Cl [Compound 240]
GI50 (LNCaP; GI=growth inhibition, read-out: GI50 LN-caP): 4.09 µM | CC50 (LNCaP; cell killing (cytotoxic effect), read-out: LC50 LN-caP): 16.5 µM | TGI LN-caP (LNCaP; [1]): 1.65E−05 Molar | GI50 (K-562; K-562): 0.124 µM | CC50 (K-562; K-562, cell killing (cytotoxic effect), read-out: LC50 K-562): 2.09 µM | TGI K-562 (K-562; K-562, total growth inhibition (cytostatic effect)): 4.50E−07 Molar | GI50 (DU-145; DU-145): 0.0606 µM | CC50 (DU-145; DU-145, cell killing (cytotoxic effect), read-out: LC50 DU-145): 16.5 µM | TGI DU-145 (DU-145; DU-145, total growth inhibition (cytostatic effect)): 1.34E−07 Molar | GI50 (HeLa-APL; GI=growth inhibition, read-out: GI50 HELA-APL): 0.341 µM | CC50 (HeLa-APL; cell killing (cytotoxic effect), read-out: LC50 HELA-APL): 7.61 µM | TGI HELA-APL (HeLa-APL; [1]): 1.40E−06 Molar | GI50 (HT-29; HT-29): 1.64 µM | CC50 (HT-29; HT-29, cell killing (cytotoxic effect), read-out: LC50 HT-29): 16.5 µM | TGI HT-29 (HT-29; HT-29, total growth inhibition (cytostatic effect)): 1.59E−05 Molar | GI50 (SK-BR-3; SK-BR-3): 0.0593 µM | CC50 (SK-BR-3; SK-BR-3, cell killing (cytotoxic effect), read-out: LC50 SK-BR-3): 16.5 µM | TGI SK-BR-3 (SK-BR-3; SK-BR-3, total growth inhibition (cytostatic effect)): 3.43E−07 Molar | GI50 (LoVo; LOVO): 0.17 µM | CC50 (LoVo; LOVO, cell killing (cytotoxic effect), read-out: LC50 LOVO): 1.52 µM | TGI LOVO (LoVo; LOVO, total growth inhibition (cytostatic effect)): 5.09E−07 Molar | GI50 (A-549; A-549): 0.126 µM | CC50 (A-549; A-549, cell killing (cytotoxic effect), read-out: LC50 A-549): 1.51 µM | TGI A-549 (A-549; A-549, total growth inhibition (cytostatic effect)): 4.70E−07 Molar | GI50 (IGROV-ET; IGROV-ET): 0.0824 µM | CC50 (IGROV-ET; IGROV-ET, cell killing (cytotoxic effect), read-out: LC50 IGROV-ET): 12.9 µM | TGI IGROV-ET (IGROV-ET; IGROV-ET, total growth inhibition (cytostatic effect)): 3.66E−07 Molar | GI50 (IGROV): 0.136 µM | CC50 (IGROV; cell killing (cytotoxic effect), read-out: LC50 IGROV): 3.64 µM | TGI IGROV (IGROV; [1]): 5.22E−07 Molar | GI50 (LoVo-Dox; LOVO-DOX): 0.461 µM | CC50 (LoVo-Dox; LOVO-DOX, cell killing (cytotoxic effect), read-out: LC50 LOVO-DOX): 16.5 µM | TGI LOVO-DOX (LoVo-Dox; LOVO-DOX, total growth inhibition (cytostatic effect)): 1.15E−06 Molar | GI50 (HeLa; GI=growth inhibition, read-out: GI50 HELA): 0.0575 µM | CC50 (HeLa; cell killing (cytotoxic effect), read-out: LC50 HELA): 1.4 µM | TGI HELA (HeLa; [1]): 1.49E−07 Molar | GI50 (SK-MEL-28; MEL-28): 0.0997 µM | CC50 (SK-MEL-28; MEL-28, cell killing (cytotoxic effect), read-out: LC50 MEL-28): 1.44 µM | TGI MEL-28 (SK-MEL-28; MEL-28, total growth inhibition (cytostatic effect)): 3.81E−07 Molar | GI50 (PANC-1; PANC-1): 0.0705 µM | CC50 (PANC-1; PANC-1, cell killing (cytotoxic effect), read-out: LC50 PANC-1): 8.86 µM | TGI PANC-1 (PANC-1; PANC-1, total growth inhibition (cytostatic effect)): 6.82E−07 Molar
